Assay results as given in PubChem BioAssay (NCI).
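The concentration for 50% growth inhibition is given as GI50. TGI denotes the concentration required for complete inhibition of growth.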

What was measured:
Assay in all cases: NCI tumour cell line growth inhibition, 384-well format
786-0 renal = tested on: 786-0 renal
A498 renal = tested on: A498 renal
A549 NSCLC = tested on: A549 NSCLC
ACHN renal = tested on: ACHN renal
BT-549 breast = tested on: BT-549 breast
CAKI-1 renal = tested on: CAKI-1 renal
CCRF-CEM leukemia = tested on: CCRF-CEM leukemia
COLO 205 colon = tested on: COLO 205 colon
DU-145 prostate = tested on: DU-145 prostate
EKVX NSCLC = tested on: EKVX NSCLC
HCC-2998 colon = tested on: HCC-2998 colon
HCT-116 colon = tested on: HCT-116 colon
HCT-15 colon = tested on: HCT-15 colon
HL-60(TB) leukemia = tested on: HL-60(TB) leukemia
HOP-62 NSCLC = tested on: HOP-62 NSCLC
HOP-92 NSCLC = tested on: HOP-92 NSCLC
HS 578T breast = tested on: HS 578T breast
HT29 colon = tested on: HT29 colon
IGROV1 ovarian = tested on: IGROV1 ovarian
KM12 colon = tested on: KM12 colon
LOX IMVI melanoma = tested on: LOX IMVI melanoma
M14 melanoma = tested on: M14 melanoma
MALME-3M melanoma = tested on: MALME-3M melanoma
MCF7 breast = tested on: MCF7 breast
MDA-MB-231 breast = tested on: MDA-MB-231 breast
MDA-MB-435 melanoma = tested on: MDA-MB-435 melanoma
MDA-MB-468 breast = tested on: MDA-MB-468 breast
MOLT-4 leukemia = tested on: MOLT-4 leukemia
NCI-H226 lung = tested on: NCI-H226 lung
NCI-H23 lung = tested on: NCI-H23 lung
NCI-H322M lung = tested on: NCI-H322M lung
NCI-H460 NSCLC = tested on: NCI-H460 NSCLC
NCI-H522 lung = tested on: NCI-H522 lung
NCI/ADR-RES ovarian = tested on: NCI/ADR-RES ovarian
OVCAR-3 ovarian = tested on: OVCAR-3 ovarian
OVCAR-4 ovarian = tested on: OVCAR-4 ovarian
OVCAR-5 ovarian = tested on: OVCAR-5 ovarian
OVCAR-8 ovarian = tested on: OVCAR-8 ovarian
PC-3 prostate = tested on: PC-3 prostate
RPMI-8226 leukemia = tested on: RPMI-8226 leukemia
RXF 393 renal = tested on: RXF 393 renal
SF-268 CNS = tested on: SF-268 CNS
SF-295 CNS = tested on: SF-295 CNS
SF-539 CNS = tested on: SF-539 CNS
SK-MEL-28 melanoma = tested on: SK-MEL-28 melanoma
SK-MEL-5 melanoma = tested on: SK-MEL-5 melanoma
SK-OV-3 ovarian = tested on: SK-OV-3 ovarian
SN12C renal = tested on: SN12C renal
SNB-19 CNS = tested on: SNB-19 CNS
SNB-75 CNS = tested on: SNB-75 CNS
SR leukemia = tested on: SR leukemia
SW-620 colon = tested on: SW-620 colon
T-47D breast = tested on: T-47D breast
TK-10 renal = tested on: TK-10 renal
U251 glioblastoma = tested on: U251 glioblastoma
UACC-257 melanoma = tested on: UACC-257 melanoma
UACC-62 melanoma = tested on: UACC-62 melanoma
UO-31 renal = tested on: UO-31 renal

Cc1cc(Nc2ncnc3ccc(NC4=NC(C)(C)CO4)cc23)ccc1Oc1ccn2ncnc2c1
GI50 (786-0 renal): 4.25 µM
TGI (786-0 renal): 8.71 µM
GI50 (A498 renal): 4.69 µM
TGI (A498 renal): 9.11 µM
GI50 (A549 NSCLC): 14.6 µM
TGI (A549 NSCLC): > 47.3 µM
GI50 (ACHN renal): 12.6 µM
TGI (ACHN renal): > 46.9 µM
GI50 (BT-549 breast): 5.36 µM
TGI (BT-549 breast): 10.7 µM
GI50 (CAKI-1 renal): 4.23 µM
TGI (CAKI-1 renal): 12.6 µM
GI50 (CCRF-CEM leukemia): 22.9 µM
TGI (CCRF-CEM leukemia): > 100 µM
GI50 (COLO 205 colon): > 40.9 µM
TGI (COLO 205 colon): > 55.1 µM
GI50 (DU-145 prostate): 13.6 µM
TGI (DU-145 prostate): 27.8 µM
GI50 (EKVX NSCLC): 23 µM
TGI (EKVX NSCLC): > 46 µM
GI50 (HCC-2998 colon): 24.3 µM
TGI (HCC-2998 colon): 98.8 µM
GI50 (HCT-116 colon): 6.82 µM
TGI (HCT-116 colon): 20.3 µM
GI50 (HCT-15 colon): 9.08 µM
TGI (HCT-15 colon): 25.4 µM
GI50 (HL-60(TB) leukemia): 5.59 µM
TGI (HL-60(TB) leukemia): 10.3 µM
GI50 (HOP-62 NSCLC): 13.5 µM
TGI (HOP-62 NSCLC): 28.7 µM
GI50 (HOP-92 NSCLC): 4.48 µM
TGI (HOP-92 NSCLC): 10.3 µM
GI50 (HS 578T breast): 3.74 µM
TGI (HS 578T breast): 8.79 µM
GI50 (HT29 colon): 29.9 µM
TGI (HT29 colon): > 100 µM
GI50 (IGROV1 ovarian): 5 µM
TGI (IGROV1 ovarian): > 40.4 µM
GI50 (KM12 colon): 2.64 µM
TGI (KM12 colon): > 55 µM
GI50 (LOX IMVI melanoma): 14.6 µM
TGI (LOX IMVI melanoma): 28.7 µM
GI50 (M14 melanoma): 11.4 µM
TGI (M14 melanoma): > 57.2 µM
GI50 (MALME-3M melanoma): 2.29 µM
TGI (MALME-3M melanoma): 7.05 µM
GI50 (MCF7 breast): 18.3 µM
TGI (MCF7 breast): > 48.2 µM
GI50 (MDA-MB-231 breast): 13.6 µM
TGI (MDA-MB-231 breast): 27.7 µM
GI50 (MDA-MB-435 melanoma): 18.6 µM
TGI (MDA-MB-435 melanoma): > 59.6 µM
GI50 (MDA-MB-468 breast): 6.86 µM
TGI (MDA-MB-468 breast): 19.1 µM
GI50 (MOLT-4 leukemia): 1.93 µM
TGI (MOLT-4 leukemia): 7.7 µM
GI50 (NCI-H226 lung): 12.5 µM
TGI (NCI-H226 lung): > 43 µM
GI50 (NCI-H23 lung): 25.1 µM
TGI (NCI-H23 lung): > 53.1 µM
GI50 (NCI-H322M lung): 5.09 µM
TGI (NCI-H322M lung): > 43.6 µM
GI50 (NCI-H460 NSCLC): 4.32 µM
TGI (NCI-H460 NSCLC): 9.09 µM
GI50 (NCI-H522 lung): 1.29 µM
TGI (NCI-H522 lung): 23.7 µM
GI50 (NCI/ADR-RES ovarian): 14.3 µM
TGI (NCI/ADR-RES ovarian): 27.5 µM
GI50 (OVCAR-3 ovarian): 4.71 µM
TGI (OVCAR-3 ovarian): 10 µM
GI50 (OVCAR-4 ovarian): 10.3 µM
TGI (OVCAR-4 ovarian): 22.6 µM
GI50 (OVCAR-5 ovarian): > 38.8 µM
TGI (OVCAR-5 ovarian): > 58.1 µM
GI50 (OVCAR-8 ovarian): 14.3 µM
TGI (OVCAR-8 ovarian): > 44.3 µM
GI50 (PC-3 prostate): 8.56 µM
TGI (PC-3 prostate): > 53.8 µM
GI50 (RPMI-8226 leukemia): 2.54 µM
TGI (RPMI-8226 leukemia): 14.9 µM
GI50 (RXF 393 renal): 7.33 µM
TGI (RXF 393 renal): > 27.7 µM
GI50 (SF-268 CNS): 6.32 µM
TGI (SF-268 CNS): > 50.2 µM
GI50 (SF-295 CNS): 16.3 µM
TGI (SF-295 CNS): 32.9 µM
GI50 (SF-539 CNS): 5.18 µM
TGI (SF-539 CNS): 9.56 µM
GI50 (SK-MEL-28 melanoma): 8.21 µM
TGI (SK-MEL-28 melanoma): 49.7 µM
GI50 (SK-MEL-5 melanoma): 12.3 µM
TGI (SK-MEL-5 melanoma): 26.6 µM
GI50 (SK-OV-3 ovarian): 13 µM
TGI (SK-OV-3 ovarian): > 46 µM
GI50 (SN12C renal): 5.84 µM
TGI (SN12C renal): 20 µM
GI50 (SNB-19 CNS): 9.26 µM
TGI (SNB-19 CNS): > 61.7 µM
GI50 (SNB-75 CNS): 6.7 µM
TGI (SNB-75 CNS): 13.8 µM
GI50 (SR leukemia): 0.407 µM
TGI (SR leukemia): 0.814 µM
GI50 (SW-620 colon): 6.12 µM
TGI (SW-620 colon): > 57.8 µM
GI50 (T-47D breast): 2.9 µM
TGI (T-47D breast): 21.3 µM
GI50 (TK-10 renal): 15.2 µM
TGI (TK-10 renal): 36 µM
GI50 (U251 glioblastoma): 15.9 µM
TGI (U251 glioblastoma): 36.1 µM
GI50 (UACC-257 melanoma): 20.2 µM
TGI (UACC-257 melanoma): 44.6 µM
GI50 (UACC-62 melanoma): 5.05 µM
TGI (UACC-62 melanoma): 10.3 µM
GI50 (UO-31 renal): 3.27 µM
TGI (UO-31 renal): 8.28 µM
